Results taken from ChEMBL document CHEMBL1201862, “PubChem BioAssay data set” (2004).
Active and inactive are the calls of the source.

Legend:
[1] = target: T1, Protein skinhead-1 (Caenorhabditis elegans, UniProt P34707); format: functional
T1 sequence (P34707 whole entry): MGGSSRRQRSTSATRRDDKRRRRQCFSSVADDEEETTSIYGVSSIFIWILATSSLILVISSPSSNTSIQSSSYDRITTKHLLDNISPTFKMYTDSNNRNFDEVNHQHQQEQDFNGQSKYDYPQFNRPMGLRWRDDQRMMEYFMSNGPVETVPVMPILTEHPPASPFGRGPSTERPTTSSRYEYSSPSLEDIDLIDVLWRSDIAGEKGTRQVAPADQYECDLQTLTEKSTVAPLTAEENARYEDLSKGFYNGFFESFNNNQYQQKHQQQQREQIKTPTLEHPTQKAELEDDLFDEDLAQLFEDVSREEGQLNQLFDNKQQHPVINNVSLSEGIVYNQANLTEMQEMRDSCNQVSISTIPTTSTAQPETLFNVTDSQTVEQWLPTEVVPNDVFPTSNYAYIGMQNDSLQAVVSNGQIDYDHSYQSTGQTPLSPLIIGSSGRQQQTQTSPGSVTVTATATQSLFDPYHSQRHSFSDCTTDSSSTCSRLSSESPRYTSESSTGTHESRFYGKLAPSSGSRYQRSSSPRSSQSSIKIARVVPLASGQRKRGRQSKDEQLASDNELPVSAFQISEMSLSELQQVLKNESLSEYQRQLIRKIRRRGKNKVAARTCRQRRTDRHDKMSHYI

[2] = target: T2, Corticotropin-releasing factor receptor 2/Corticotropin-releasing factor-binding protein (Homo sapiens, UniProt P24387+Q13324); assay: activators of CRF receptor 2 with binding protein – uHTS hits, confirmation (AID 602473); format: functional; settings: read-out: EC50_Mean
T2 sequence (Q13324 whole entry): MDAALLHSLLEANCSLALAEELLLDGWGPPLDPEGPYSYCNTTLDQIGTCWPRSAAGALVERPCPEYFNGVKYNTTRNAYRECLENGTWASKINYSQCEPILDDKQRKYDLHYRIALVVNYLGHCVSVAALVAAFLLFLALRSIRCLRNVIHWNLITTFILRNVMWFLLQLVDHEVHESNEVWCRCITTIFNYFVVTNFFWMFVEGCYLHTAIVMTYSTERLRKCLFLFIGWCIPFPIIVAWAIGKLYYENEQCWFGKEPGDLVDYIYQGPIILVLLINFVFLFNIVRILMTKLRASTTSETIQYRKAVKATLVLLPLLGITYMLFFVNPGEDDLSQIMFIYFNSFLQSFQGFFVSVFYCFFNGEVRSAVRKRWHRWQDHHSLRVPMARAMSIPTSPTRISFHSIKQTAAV
T2 sequence (P24387 whole entry): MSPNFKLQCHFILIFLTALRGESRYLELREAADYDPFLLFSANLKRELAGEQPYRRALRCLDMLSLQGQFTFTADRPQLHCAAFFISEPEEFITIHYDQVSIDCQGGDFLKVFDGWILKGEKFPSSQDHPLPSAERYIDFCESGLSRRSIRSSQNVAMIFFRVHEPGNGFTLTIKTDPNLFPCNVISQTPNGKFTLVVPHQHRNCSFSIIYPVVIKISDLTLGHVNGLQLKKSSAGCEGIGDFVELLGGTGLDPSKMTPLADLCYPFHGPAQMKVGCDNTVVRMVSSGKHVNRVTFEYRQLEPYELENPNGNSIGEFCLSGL

[3] = target: T2, Corticotropin-releasing factor receptor 2/Corticotropin-releasing factor-binding protein; assay: Dose Response confirmation of uHTS hits for small molecule antagonists of the CRF-binding protein and CRF-R2 receptor complex.; format: functional; settings: read-out: IC50_Mean
[4] = cells; format: functional
[5] = target: T3, Replicative DNA helicase DnaB (Mycobacterium tuberculosis, UniProt P9WMR3); assay: DnaB intein splicing inhibitors, dose response, biochemical, cell-free fluorescence (AID 449749); format: functional
T3 sequence (P9WMR3 whole entry): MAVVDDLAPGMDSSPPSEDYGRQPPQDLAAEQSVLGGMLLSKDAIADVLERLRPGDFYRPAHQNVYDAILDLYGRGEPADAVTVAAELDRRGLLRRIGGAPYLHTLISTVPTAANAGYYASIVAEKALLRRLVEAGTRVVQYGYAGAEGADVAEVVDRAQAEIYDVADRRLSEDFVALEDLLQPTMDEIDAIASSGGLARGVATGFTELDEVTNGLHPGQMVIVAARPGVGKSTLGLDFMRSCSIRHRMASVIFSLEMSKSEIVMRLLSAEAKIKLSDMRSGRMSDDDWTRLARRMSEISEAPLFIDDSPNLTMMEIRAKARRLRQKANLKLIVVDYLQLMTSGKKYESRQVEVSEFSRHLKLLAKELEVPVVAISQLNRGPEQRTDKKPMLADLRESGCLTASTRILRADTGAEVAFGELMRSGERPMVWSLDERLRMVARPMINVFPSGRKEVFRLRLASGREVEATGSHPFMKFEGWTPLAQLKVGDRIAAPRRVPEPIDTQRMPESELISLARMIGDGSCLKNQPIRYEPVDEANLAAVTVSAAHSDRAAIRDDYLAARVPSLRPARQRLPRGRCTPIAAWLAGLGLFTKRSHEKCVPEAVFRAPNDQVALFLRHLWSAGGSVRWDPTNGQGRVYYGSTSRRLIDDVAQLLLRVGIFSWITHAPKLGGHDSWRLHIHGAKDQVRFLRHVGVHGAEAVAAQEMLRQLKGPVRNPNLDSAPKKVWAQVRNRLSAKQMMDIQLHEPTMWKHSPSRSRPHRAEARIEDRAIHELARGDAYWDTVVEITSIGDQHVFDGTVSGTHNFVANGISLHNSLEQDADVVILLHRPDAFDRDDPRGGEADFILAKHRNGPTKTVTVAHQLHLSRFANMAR

[6] = target: T4, Protein RecA (Mycobacterium tuberculosis, UniProt P9WHJ3); assay: Fluorescence Cell-Free Homogeneous Dose Retest to Identify Inhibitors of RecA-Intein Splicing Activity. [Related pubchem assays (depositor defined):AID2097, AID2223, AID489010, AID492950]; format: functional
T4 sequence (P9WHJ3 whole entry): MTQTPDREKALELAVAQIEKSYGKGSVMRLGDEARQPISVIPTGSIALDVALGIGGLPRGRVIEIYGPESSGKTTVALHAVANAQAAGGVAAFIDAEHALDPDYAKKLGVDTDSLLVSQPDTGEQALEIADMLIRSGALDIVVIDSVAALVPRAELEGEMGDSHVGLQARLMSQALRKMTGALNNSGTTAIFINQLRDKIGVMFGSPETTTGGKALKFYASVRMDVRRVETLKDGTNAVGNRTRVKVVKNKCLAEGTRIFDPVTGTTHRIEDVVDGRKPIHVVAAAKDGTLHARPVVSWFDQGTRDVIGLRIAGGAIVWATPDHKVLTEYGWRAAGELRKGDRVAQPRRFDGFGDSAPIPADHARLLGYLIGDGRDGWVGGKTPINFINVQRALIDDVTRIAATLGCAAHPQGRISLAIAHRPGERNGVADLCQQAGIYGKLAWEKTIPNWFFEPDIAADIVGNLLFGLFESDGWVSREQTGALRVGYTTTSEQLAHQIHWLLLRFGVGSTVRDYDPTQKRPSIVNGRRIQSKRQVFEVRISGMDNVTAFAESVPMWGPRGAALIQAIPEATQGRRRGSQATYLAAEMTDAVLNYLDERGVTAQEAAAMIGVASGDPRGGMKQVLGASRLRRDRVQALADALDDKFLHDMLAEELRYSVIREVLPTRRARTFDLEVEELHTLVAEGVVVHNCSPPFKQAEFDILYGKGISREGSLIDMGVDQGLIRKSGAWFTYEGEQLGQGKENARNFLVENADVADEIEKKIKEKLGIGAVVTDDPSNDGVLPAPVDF

[7] = HepG2 cell cytotoxicity, dose response, cytotoxicity control for Shn3 inhibitor project, CellTiter-Glo, cherry-picked (AID 624134); format: functional, cell-based
[8] = Shn3 3'UTR reporter inhibitors, dose response, cell-based, Clone20 osteoblasts, firefly luciferase, cherry-picked (AID 624132); format: functional;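 further: firefly luciferase luminescence from reporter carrying the Shn3 3'UTR in osteoblasts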
[9] = target: Cytochrome P450 2C19 (Homo sapiens, UniProt P33261); assay: Cytochrome panel assay with activity outcomes. Panel member name: p450-cyp2c19 Compounds with AC50 equal or less than 10 uM are considered active; format: functional; settings: read-out: AC50
Sequence of Cytochrome P450 2C19 (P33261 whole entry): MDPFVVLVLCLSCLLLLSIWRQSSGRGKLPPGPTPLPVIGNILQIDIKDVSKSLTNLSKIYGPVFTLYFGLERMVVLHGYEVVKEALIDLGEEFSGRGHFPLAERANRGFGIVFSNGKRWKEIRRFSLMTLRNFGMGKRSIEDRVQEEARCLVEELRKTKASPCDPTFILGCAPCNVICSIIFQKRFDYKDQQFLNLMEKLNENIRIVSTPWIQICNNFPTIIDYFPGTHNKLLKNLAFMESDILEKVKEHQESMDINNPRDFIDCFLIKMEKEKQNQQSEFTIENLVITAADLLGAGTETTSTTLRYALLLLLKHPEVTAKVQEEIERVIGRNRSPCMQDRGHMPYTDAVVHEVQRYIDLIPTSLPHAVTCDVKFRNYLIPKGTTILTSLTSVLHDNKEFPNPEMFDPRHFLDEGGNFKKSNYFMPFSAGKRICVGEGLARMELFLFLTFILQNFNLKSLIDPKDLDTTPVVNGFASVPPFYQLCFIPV

[10] = target: Cytochrome P450 2D6 (Homo sapiens, UniProt P10635);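 further: CYP2D6 member of a cytochrome P450 panel assay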
Sequence of Cytochrome P450 2D6 (P10635 whole entry): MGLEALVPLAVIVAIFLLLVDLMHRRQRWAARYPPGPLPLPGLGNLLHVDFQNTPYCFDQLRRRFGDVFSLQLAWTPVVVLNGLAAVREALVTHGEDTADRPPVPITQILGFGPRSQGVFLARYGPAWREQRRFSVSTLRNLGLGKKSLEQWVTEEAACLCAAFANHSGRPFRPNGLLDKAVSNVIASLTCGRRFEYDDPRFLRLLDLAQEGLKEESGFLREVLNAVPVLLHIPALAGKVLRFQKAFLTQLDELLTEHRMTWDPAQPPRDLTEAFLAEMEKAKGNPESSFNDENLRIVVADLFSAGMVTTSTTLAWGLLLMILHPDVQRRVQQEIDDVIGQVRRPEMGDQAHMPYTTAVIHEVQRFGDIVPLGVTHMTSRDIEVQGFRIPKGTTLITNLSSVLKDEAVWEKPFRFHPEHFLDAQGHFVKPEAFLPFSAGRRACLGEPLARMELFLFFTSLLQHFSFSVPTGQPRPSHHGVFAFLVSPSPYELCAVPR

[11] = target: Cytochrome P450 3A4 (Homo sapiens, UniProt P08684);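 further: CYP3A4 tested as one member of a cytochrome P450 panel screen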
Sequence of Cytochrome P450 3A4 (P08684 whole entry): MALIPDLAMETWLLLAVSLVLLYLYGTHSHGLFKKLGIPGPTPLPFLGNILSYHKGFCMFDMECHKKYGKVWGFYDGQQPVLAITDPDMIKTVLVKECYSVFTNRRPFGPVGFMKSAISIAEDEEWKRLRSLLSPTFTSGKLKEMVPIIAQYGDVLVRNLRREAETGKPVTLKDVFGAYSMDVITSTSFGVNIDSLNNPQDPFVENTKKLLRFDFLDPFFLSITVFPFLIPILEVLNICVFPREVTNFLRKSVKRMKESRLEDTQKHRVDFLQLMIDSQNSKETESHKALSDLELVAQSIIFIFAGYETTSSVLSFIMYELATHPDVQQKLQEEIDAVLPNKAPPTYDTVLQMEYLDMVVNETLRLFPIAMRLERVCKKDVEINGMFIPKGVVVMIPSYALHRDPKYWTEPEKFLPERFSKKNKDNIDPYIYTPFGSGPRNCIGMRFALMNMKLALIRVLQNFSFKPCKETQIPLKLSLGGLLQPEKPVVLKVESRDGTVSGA

[12] = target: Cytochrome P450 2C9 (Homo sapiens, UniProt P11712)
Sequence of Cytochrome P450 2C9 (P11712 whole entry): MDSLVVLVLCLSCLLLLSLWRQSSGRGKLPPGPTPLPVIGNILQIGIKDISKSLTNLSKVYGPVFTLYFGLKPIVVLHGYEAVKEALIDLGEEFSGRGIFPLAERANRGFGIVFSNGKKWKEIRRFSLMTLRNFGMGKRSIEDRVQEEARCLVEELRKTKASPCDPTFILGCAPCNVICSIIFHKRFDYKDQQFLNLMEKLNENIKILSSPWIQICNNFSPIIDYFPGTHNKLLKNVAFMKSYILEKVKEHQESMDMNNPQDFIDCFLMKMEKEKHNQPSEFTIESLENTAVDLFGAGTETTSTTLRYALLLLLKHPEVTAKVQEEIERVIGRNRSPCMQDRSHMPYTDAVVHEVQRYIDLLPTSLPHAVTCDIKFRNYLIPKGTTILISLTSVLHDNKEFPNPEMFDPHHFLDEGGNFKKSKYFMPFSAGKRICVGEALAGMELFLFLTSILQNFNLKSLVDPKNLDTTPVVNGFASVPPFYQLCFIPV

[13] = C. albicans growth with fluconazole, confirmation, fluorescence, retest (AID 2467); format: functional, cell-based
[14] = inhibitors of intracellular T. cruzi replication, confirmation, NIH3T3 host cells, beta-gal luminescence (AID 2044); format: functional, cell-based;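 further: intracellular parasites grown in NIH/3T3 mouse fibroblasts as host cells; luminescent beta-galactosidase reporter signal from transgenic T. cruzi replicating inside host cells; inhibitors lower the luminescence signal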
[15] = microbe, parasite or virus in culture; format: functional; settings: Mycobacterium tuberculosis
[16] = cytotoxicity toward NIH3T3 fibroblasts, dose response, counter-screen, cell-based, ATP luminescence, mouse fibroblasts (AID 2010); format: functional;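 further: cells exposed to compound for about 90 hours before reading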
[17] = NIH-3T3 fibroblast cytotoxicity, dose response, cytotoxicity control, cell-based, fluorescence, Alamar Blue, secondary assay (AID 2327); format: functional;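 further: NIH-3T3 mouse fibroblasts cultured with fluconazole at 8 µg/mL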
[18] = HEp-2 cell cytotoxicity, dose response, cytotoxicity control for RSV inhibitor project, HTS (AID 2410); format: functional; settings: human respiratory syncytial virus
[19] = test system: Streptococcus sp. 'group A'; assay: growth inhibition of control SK(-) GAS strain, dose response, counter-screen for streptokinase expression inhibitor project, luminescence, kanamycin, BacTiterGlo, confirmation (AID 1900); format: functional, organism-based
[20] = test system: Streptococcus; assay: Group A Streptococcus viability loss, dose response, counter-screen for streptokinase expression inhibitor project, luminescence, BacTiterGlo (AID 1915); format: functional, organism-based;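 further: potency for reduction of bacterial viability or growth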
[21] = target: T5, Streptokinase A (Streptococcus pyogenes serotype M1, UniProt P10520); assay: S. pyogenes streptokinase expression inhibitors, potency, dose response, plasminogen activation absorbance, OD405 (AID 1914); format: functional, Streptococcus pyogenes M1 GAS;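 further: secreted streptokinase activity via plasminogen activation per viability signal from cell pellet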
T5 sequence (P10520 whole entry): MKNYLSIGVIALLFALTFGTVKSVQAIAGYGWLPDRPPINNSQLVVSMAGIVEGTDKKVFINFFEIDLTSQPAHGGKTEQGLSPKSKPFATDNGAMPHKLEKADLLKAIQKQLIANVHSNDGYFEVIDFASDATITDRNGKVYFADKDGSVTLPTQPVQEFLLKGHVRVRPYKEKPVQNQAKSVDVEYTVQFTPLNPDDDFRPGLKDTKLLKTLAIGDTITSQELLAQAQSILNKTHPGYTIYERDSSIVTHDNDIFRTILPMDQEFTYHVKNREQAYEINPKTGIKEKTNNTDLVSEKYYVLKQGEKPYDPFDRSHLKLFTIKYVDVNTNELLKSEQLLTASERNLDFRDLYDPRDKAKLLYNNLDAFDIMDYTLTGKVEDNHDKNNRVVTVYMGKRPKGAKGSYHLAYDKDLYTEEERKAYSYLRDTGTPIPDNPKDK

COC(=O)C1=C(CN2CCSCC2)NC(=O)NC1c1cc(C)ccc1C (stereo not drawn)
IC50 [1]: > 100 µM (inactive)

CC1C/C(=N\NC(=O)c2ccc([N+](=O)[O-])cc2)CC(C)(C)C1 (stereo not drawn)
EC50 [2]: > 53 µM (inactive)
IC50 [3]: > 47.1 µM (inactive)

Cc1n[nH]c2c1C(c1ccc(OC(=O)c3ccco3)cc1)C(C#N)=C(N)O2 (stereo not drawn)
IC50 [4]: 35.2 µM (active)
AC50 [5]: 9.43 µM (active)
EC50 [6]: 3.62 µM (active)

Cc1ccc(S(=O)(=O)N2CCC3(CC2)OCCN3S(=O)(=O)c2c(C)cc(C)cc2C)cc1
AC50 [7]: 56.1 µM (active)
AC50 [8]: 6.81 µM (active)

Clc1ccc(-c2cc(CSc3cccc(Cl)c3)on2)cc1
IC50 [1]: 59.2 µM (inactive)

CNc1ncnc2ccc(-c3ccccc3OC)cc12
AC50 [9]: 31.6 µM (inconclusive)
AC50 [10]: 25.1 µM (inconclusive)

Cc1cnc(CNc2nc(-c3ccoc3)nc3ccccc23)cn1
AC50 [10]: 20 µM (inconclusive)

O=C(NCC1CC1)c1ccc(-c2cn[nH]c2)c2ccoc12
IC50 [1]: 100 µM (inactive)

CCOC(=O)CN(C(=O)CNC(=O)c1cccs1)C(C(=O)NC1CCCCC1)c1cccs1 (stereo not drawn)
IC50 [1]: > 100 µM (inactive)

CCc1nnc(NC(=O)CCC(=O)N2CCN(Cc3cc(Cl)ccc3OC)CC2)s1
EC50 [2]: > 53 µM (inactive)
IC50 [3]: > 47.1 µM (inactive)

CCOC(=O)C(Cc1cc(C(C)=O)ccc1OCC)C(=O)OCC
IC50 [1]: > 100 µM (inactive)

CCCn1cnc2c(SCc3ccc(Cl)cc3)nc(N)nc21
AC50 [11]: 6.31 µM (inconclusive)
AC50 [12]: 6.31 µM (inconclusive)
AC50 [10]: 3.16 µM (inconclusive)

CC(C)C(CCNC(=O)CC(Cc1ccccc1)c1ccco1)c1ccco1 (stereo not drawn)
AC50 [11]: 39.8 µM (inconclusive)
AC50 [9]: 0.631 µM (inconclusive)
AC50 [10]: 5.62 µM (inconclusive)

CCOC(=O)Nc1cccc(OCC(=O)Nc2ccccc2OC)c1
IC50 [4]: > 50 µM (active)

COc1ccc(N(CC(=O)NC2CCCCC2)C(=O)CNC(=O)c2cccs2)cc1
IC50 [1]: > 100 µM (inactive)

CSc1cccc(NC(=O)Nc2ccc(Cl)cc2)c1
AC50 [11]: 14.1 µM (inconclusive)
AC50 [10]: 3.55 µM (inconclusive)

CC(C)(C)/C(O)=C/c1nc2ccccc2oc1=O
IC50 [4]: 3.06 µM (active)

c1ccc(CC2CCN(C3=Nc4cccc5cccc3c45)CC2)cc1
EC50 [13]: 4.58 µM (active)
EC50 [14]: 0.935 µM (active)
CC50 [15]: > 40 µM (active)
EC50 [16]: > 30 µM (not active)
EC50 [17]: 73.9 µM (active)

COc1cccc(Cn2c(=O)c(-c3cccs3)nc3cncnc32)c1
AC50 [10]: 6.31 µM (inconclusive)

Cc1cc(C)c2ccc3c(C)c(C)[nH]c3c2n1
IC50 [1]: < 3.13 µM (active)

CC(C)COc1ccc(-c2nnc(-c3ccco3)o2)cc1
IC50 [1]: > 100 µM (inactive)

CN1c2ccsc2/C(=N/Nc2ccccc2)CS1(=O)=O
CC50 [18]: > 50 µM (active)
EC50 [19]: 2.34 µM (active)
IC50 [4]: 37 µM (active)
EC50 [20]: 16.1 µM (active)
EC50 [21]: 4.12 µM (active)

Clc1ccc(-c2csc(N3CCSCC3)n2)cc1
IC50 [1]: > 100 µM (inactive)

O=C1c2ccccc2C(=O)N1CCCSc1ccccc1
AC50 [10]: 3.16 µM (inconclusive)
